Molecular target: Neuronal acetylcholine receptor; alpha4/beta2 (Rattus norvegicus, UniProt P09483+P12390)
Test: Displacement of [3H]epibatidine from rat alpha4beta2 nAChR
Assay type: protein-complex assay

Chain of Neuronal acetylcholine receptor; alpha4/beta2 (P09483 whole entry): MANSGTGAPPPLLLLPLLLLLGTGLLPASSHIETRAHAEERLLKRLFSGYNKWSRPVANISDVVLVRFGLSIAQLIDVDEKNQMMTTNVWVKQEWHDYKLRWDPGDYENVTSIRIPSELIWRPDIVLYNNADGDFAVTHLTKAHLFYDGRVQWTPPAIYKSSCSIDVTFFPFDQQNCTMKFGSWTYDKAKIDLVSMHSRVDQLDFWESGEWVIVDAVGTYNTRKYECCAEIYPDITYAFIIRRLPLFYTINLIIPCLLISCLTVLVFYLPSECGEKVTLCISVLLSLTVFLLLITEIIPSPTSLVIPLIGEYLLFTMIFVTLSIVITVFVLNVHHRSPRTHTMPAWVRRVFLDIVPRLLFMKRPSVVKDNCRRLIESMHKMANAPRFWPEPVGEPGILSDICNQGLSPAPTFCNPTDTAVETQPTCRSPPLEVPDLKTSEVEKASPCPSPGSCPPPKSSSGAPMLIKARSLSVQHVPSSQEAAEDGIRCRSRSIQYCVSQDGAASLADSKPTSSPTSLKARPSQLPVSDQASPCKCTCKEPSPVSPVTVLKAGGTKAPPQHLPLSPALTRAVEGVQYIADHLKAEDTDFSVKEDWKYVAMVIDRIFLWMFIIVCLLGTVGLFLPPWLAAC
Chain of Neuronal acetylcholine receptor; alpha4/beta2 (P12390 whole entry): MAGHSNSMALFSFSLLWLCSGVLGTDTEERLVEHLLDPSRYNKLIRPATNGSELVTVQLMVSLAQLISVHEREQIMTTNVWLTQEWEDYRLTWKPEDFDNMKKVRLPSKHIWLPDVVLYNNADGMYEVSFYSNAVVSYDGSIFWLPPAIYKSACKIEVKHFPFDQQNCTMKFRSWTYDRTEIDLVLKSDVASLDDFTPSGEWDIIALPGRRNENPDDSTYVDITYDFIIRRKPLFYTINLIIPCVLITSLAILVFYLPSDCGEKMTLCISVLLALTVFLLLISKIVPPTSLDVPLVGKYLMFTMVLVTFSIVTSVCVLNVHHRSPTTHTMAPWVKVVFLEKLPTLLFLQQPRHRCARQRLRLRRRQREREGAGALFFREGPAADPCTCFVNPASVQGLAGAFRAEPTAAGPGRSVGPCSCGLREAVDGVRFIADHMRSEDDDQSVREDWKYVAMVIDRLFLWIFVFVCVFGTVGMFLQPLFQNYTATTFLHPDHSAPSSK

| Structure (SMILES) | IC50 |
| --- | --- |
| CN1C[C@@H]2C[C@H](C1)c1ccc(Br)c(=O)n1C2 | 102 nM |
| O=c1c(I)ccc2n1C[C@@H]1CNC[C@H]2C1 | 0.245 nM |
| CN1C[C@@H]2C[C@H](C1)c1cccc(=O)n1C2 | 112 nM |
| O=c1ccc(Br)c2n1C[C@@H]1CNC[C@H]2C1 | 457 nM |
| O=c1cccc2n1C[C@@H]1CNC[C@H]2C1 [CYTISINICLINE] | 69.2 nM |
| O=c1c(Br)ccc2n1C[C@@H]1CNC[C@H]2C1 | 0.309 nM |
| O=c1c(Br)cc(Br)c2n1C[C@@H]1CNC[C@H]2C1 | 372 nM |
